Source: patent US20230310542A1, “EPIGENETIC MODIFIERS TO TREAT RETINAL DEGENERATIONS” (priority 2022, published 2023)

How the values were obtained:
rd10 mice retina = test: RNA-seq of PN24 retina, rd10 mice; format: in vivo, mouse
Procedure: RNA was extracted from PN24 retina of WT and rd10 animals treated with saline or GSK from PN9 till PN24. RNA integrity number (RIN) was measured using BioAnalyzer (Agilent Technologies) RNA 6000 Nano Kit to confirm RIN above 7 for each sample. The cDNA libraries were prepared using the Illumina® Stranded mRNA Prep, Ligation kit (Illumina) as per the manufacturer's instructions. Briefly, polyA RNA was purified from 200 ng of total RNA using oligo (dT) beads. The extracted mRNA fraction was subjected to fragmentation, reverse transcription, end repair, 3′— end adenylation, and adaptor ligation, followed by PCR amplification and SPRI bead purification (Beckman Coulter). The unique dual index sequences (IDT® for Illumina® RNA UD Indexes Set A, Ligation, Illumina) were incorporated in the adaptors for multiplexed high-throughput sequencing. The final product was assessed for its size distribution and concentration using BioAnalyzer High Sensitivity DNA Kit (Agilent Technologies). The libraries were pooled and diluted to 3 nM using 10 mM Tris-HCl, pH 8.5, and then denatured using the Illumina protocol. The denatured libraries were loaded onto an S1 flow cell on an Illumina NovaSeq 6000 (Illumina) and run for 2×53 cycles according to the manufacturer's instructions. De-multiplexed and adapter-trimmed sequencing reads were generated using Illumina bcl2fastq (released version 2.20.0) allowing no mismatches in the index read. BBDuk was used to trim/filter low-quality sequences using “qtrim=lr trimq=10 maq=10” option. Next, alignment of the filtered reads to the mouse reference genome (mouse Ensembl release 67 (GRCm37/NCBIM37/mm9)) was done using HISAT2 (version 2.1.0) applying --no-mixed and --no-discordant options. Read counts were calculated using HTSeq by supplementing Ensembl gene annotation (release 67: “Mus_musculus.Ensembl.NCBIM37.67.gtf”). The edgeR R package was used to fit the read counts to the negative binomial model along with the generalized linear model (GLM) and differentially expressed genes were determined by the likelihood ratio test method implemented in the edgeR. […] The ggplot2 R package was used for generating heatmaps. Raw counts and differential expression analysis generated during this study are available at GEO Submission GSE169527.
The Database for Annotation, Visualization, and Integrated Discovery (DAVID) was used for GO functional analysis.

WT mice retina = test: RNA-seq of PN24 retina, WT mice; format: in vivo, mouse; conditions: GSK PN9 till PN24 vs saline; FDR<0.05, fold change >2 or <0.5
Procedure: RNA was extracted from PN24 retina of WT and rd10 animals treated with saline or GSK from PN9 till PN24. RNA integrity number (RIN) was measured using BioAnalyzer (Agilent Technologies) RNA 6000 Nano Kit to confirm RIN above 7 for each sample. The cDNA libraries were prepared using the Illumina® Stranded mRNA Prep, Ligation kit (Illumina) as per the manufacturer's instructions. Briefly, polyA RNA was purified from 200 ng of total RNA using oligo (dT) beads. The extracted mRNA fraction was subjected to fragmentation, reverse transcription, end repair, 3′— end adenylation, and adaptor ligation, followed by PCR amplification and SPRI bead purification (Beckman Coulter). […] The final product was assessed for its size distribution and concentration using BioAnalyzer High Sensitivity DNA Kit (Agilent Technologies). […] De-multiplexed and adapter-trimmed sequencing reads were generated using Illumina bcl2fastq (released version 2.20.0) allowing no mismatches in the index read. […] Next, alignment of the filtered reads to the mouse reference genome (mouse Ensembl release 67 (GRCm37/NCBIM37/mm9)) was done using HISAT2 (version 2.1.0) applying --no-mixed and --no-discordant options. Read counts were calculated using HTSeq by supplementing Ensembl gene annotation (release 67: “Mus_musculus.Ensembl.NCBIM37.67.gtf”). […]

[1] = GSK PN9 till PN24 vs saline, FDR<0.05, fold change >2 or <0.5

In the case of `O=C(O)c1ccc(CN2CCC(CN[C@@H]3C[C@H]3c3ccccc3)CC2)cc1` [GSK, GSK2879552], the “number of genes downregulated” value (rd10 mice retina; [1]) is reported as 369 genes, the “number of genes upregulated” value (rd10 mice retina; [1]) is reported as 719 genes and the “genes simultaneously upregulated in rd10 and WT mice retina” value (rd10 mice retina; GSK, p<0.05, fold change >1.75 or <0.8) is reported as “approximately 150 genes”. For the same compound, the “expression of genes specific for rod photoreceptors” value (rd10 mice retina; rd10+GSK retina) was “returned to normal expression levels”, the “IPA canonical pathways, upregulated” value (rd10 mice retina; rd10+GSK vs rd10) was “major upregulated pathway is the phototransduction pathway” and the “IPA canonical pathways, down regulated” value (rd10 mice retina; rd10+GSK vs rd10, next 4 most important pathways) was “down regulated pathways were all related to neuroinflammation”. The “expression of resident microglia markers” value (rd10 mice retina; rd10+GSK, Atp6v0d2, Mcoln3, Cd5l, Ctsd, C1qa, Fcrls, Hexb, Gpr34, Junb, Pclaf, Birc5) was “went back to normal levels of expression”, the “expression of markers of infiltrating immune cells” value (rd10 mice retina; rd10+GSK, H2-Aa, cd74, H2-Ab1, H2-Eb1, Cx3cr1 and others) was “returned to normal levels of expression” and the “expression of amacrine cell markers Clrn1 and Efemp1” value (rd10 mice retina; rd10 under GSK inhibition) was “down-regulated”. The “expression of cell death genes Capn9, Casp1, 12, AifI” value (rd10 mice retina; rd10 under GSK inhibition) was “downregulated”, the “expression of Gfap” value (rd10 mice retina; rd10 under GSK inhibition, did not reach threshold conditions) was “decreased” and the “number of genes downregulated” value (WT mice retina) was 13 genes. For the same compound, the “number of genes upregulated” value (WT mice retina) was 77 genes.
